The source of these data is patent publication US20100160369A1, “S1P1 Agonists and Methods of Making And Using” (EXELIXIS, INC., priority 2008, published 2010).

In this test the target is S1P1 (Homo sapiens, UniProt P21453). Put plainly: CNG cAMP Assay (Assay 1). On the set-up: host or cells: HEK293 cells expressing the CNG channel. Format: cell-based. How it is done: Frozen HEK293 cells expressing the CNG channel and S1P1 (BD Biosciences, San Jose, Calif.) were thawed and plated into the wells of a black, clear bottom, 384-well CellBind plate (Corning, Corning, N.Y.) at 14,000 cells per well. HEK293 cells expressing the CNG channel and CB1 (BD Biosciences) were cultured and plated under the same conditions. The cells were incubated for 16 h at 37° C. in complete DMEM medium (Invitrogen Carlsbad, Calif.) containing 10% FBS (HyClone Logan, Utah), 250 μg/mL geneticin (Invitrogen), and 1 μg/mL puromycin (Sigma-Aldrich, St. Louis, Mo.). A membrane potential dye (BD Biosciences) was added and the plates were incubated for 2-2.5 h at room temperature.
Test compounds were tested at maximum concentrations of 10 μM. Compounds were diluted in DMSO (10 concentration points, 3-fold each) and added to the assay plate at final DMSO concentrations of 1.8%. For each compound, there were duplicate assay plates and each assay plate had duplicate wells per concentration point. Test compounds were added to the cells in a DPBS solution containing 25 μM Ro 20-1724 (Sigma-Aldrich), 500 nM of the A2b receptor agonist NECA (Sigma-Aldrich) and 10 nM (EC95) of S1P (Avanti Alabaster, Ala.) and incubated for 90 min. The assay plate was read before compound addition (T0) and after the 90 min incubation (T90) using an EnVision plate reader (PerkinElmer, Waltham, Mass.) at an excitation wavelength of 350 nm and an emission wavelength of 590 nm. The T90/T0 ratio was determined for each concentration of the test compounds. The percent agonist activity was determined as [(test compound−DMSO alone control)/(NECA alone control−DMSO alone control)*100]. The percent activities were plotted against compound concentration to determine EC50 using XLFit (IDBS, Alameda, Calif.). The control used for calculating rEC50 in the S1P1 CNG agonist assay was DMSO.
Assay 1 is the CNG cAMP Assay as described in Biological Example 1. Assay 2a and 2b are the Tango™ β-arrestin Recruitment Assay in HEK293 and U2OS cells, respectively, as described in Biological Example 2. Assay 3a is the hS1P1R GTPγS Binding Assay as described in Biological Example 3. Assay 3b is the GTP-Eu Binding Assay as described in Biological Example 3. EC50's were measured unless otherwise noted. […] In the table, “nt” means the Compound was not tested and “no” means the compound was tested but had no measurable activity under the assay conditions employed.

Where [1] appears, read: relative EC50 was measured (footnote 1), read-out: Assay 1 Relative EC50.

Where two headings read alike, the source gives them in different places. Where only a bound is given, the exact number is not on record here.

Sequence of S1P1 (P21453 whole entry): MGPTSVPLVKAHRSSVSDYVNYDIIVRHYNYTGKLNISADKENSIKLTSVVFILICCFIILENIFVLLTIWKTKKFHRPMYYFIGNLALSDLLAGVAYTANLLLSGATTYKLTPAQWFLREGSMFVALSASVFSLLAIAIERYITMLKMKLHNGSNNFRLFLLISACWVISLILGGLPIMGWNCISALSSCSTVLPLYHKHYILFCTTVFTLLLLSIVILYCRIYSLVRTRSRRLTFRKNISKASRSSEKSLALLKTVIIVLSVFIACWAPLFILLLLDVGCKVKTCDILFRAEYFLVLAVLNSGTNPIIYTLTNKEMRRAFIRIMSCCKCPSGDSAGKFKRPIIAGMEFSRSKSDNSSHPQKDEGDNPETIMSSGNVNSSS

For `OC[C@H]1C[C@H](Oc2ccc(-c3noc(-c4cn5cc(C(F)(F)F)cc(Cl)c5n4)n3)c(Cl)c2)CN1` [Example 84, {(2R,4S)-4-[(3-chloro-4-{5-[8-chloro-6-(trifluoromethyl)imidazo[1,2-a]pyridin-2-yl]-1,2,4-oxadiazol-3-yl}phenyl)oxy]pyrrolidin-2-yl}methanol], the EC50 (read-out: Assay 1 EC50) lay within 0.1 to 0.5 µM.

In the case of `Cc1cc(-c2noc(-c3cn4cc(C(F)(F)F)cc(Cl)c4n3)n2)ccc1C1CC1C(=O)O` (stereo not shown) [Example 86, 2-(4-{5-[8-chloro-6-(trifluoromethyl)imidazo[1,2-a]pyridin-2-yl]-1,2,4-oxadiazol-3-yl}-2-methylphenyl)cyclopropanecarboxylic acid], the EC50 (read-out: Assay 1 EC50) fell in the range of 0.1 to 0.5 µM. In the case of `OC[C@@H]1C[C@H](Oc2ccc(-c3noc(-c4cn5cc(C(F)(F)F)cc(Cl)c5n4)n3)c(Cl)c2)CN1` [Example 87, {(2S,4S)-4-[(3-chloro-4-{5-[8-chloro-6-(trifluoromethyl)imidazo[1,2-a]pyridin-2-yl]-1,2,4-oxadiazol-3-yl}phenyl)oxy]pyrrolidin-2-yl}methanol], where the note is “read-out: Assay 1 EC50”, the EC50 is at most 0.1 µM. For the compound `O=C(O)C1CC1c1cc(F)c(-c2noc(-c3cn4cc(C(F)(F)F)cc(Cl)c4n3)n2)cc1F` (stereo not shown) [Example 88, 2-(4-{5-[8-chloro-6-(trifluoromethyl)imidazo[1,2-a]pyridin-2-yl]-1,2,4-oxadiazol-3-yl}-2,5-difluorophenyl)cyclopropanecarboxylic acid], the EC50 (read-out: Assay 1 EC50) was at most 0.1 µM.

Take `Nc1ccc(-c2noc(-c3cn4cc(C(F)(F)F)cc(Cl)c4n3)n2)c(Cl)c1` [Example 90, 3-chloro-4-{5-[8-chloro-6-(trifluoromethyl)imidazo[1,2-a]pyridin-2-yl]-1,2,4-oxadiazol-3-yl}aniline]: the EC50 (read-out: Assay 1 EC50) was at most 0.1 µM.

With `Cc1cc(-c2noc(-c3cn4cc(C(F)(F)F)cc(Cl)c4n3)n2)cc(C)c1O[C@H](C)CO` [Example 91, (2R)-2-[(4-{5-[8-chloro-6-(trifluoromethyl)imidazo[1,2-a]pyridin-2-yl]-1,2,4-oxadiazol-3-yl}-2,6-dimethylphenyl)oxy]propan-1-ol], the EC50 (read-out: Assay 1 EC50) was at most 0.1 µM. Same read-out and setting: the figure for `O=C(O)CCNc1ccc(-c2noc(-c3cn4cc(C(F)(F)F)cc(Cl)c4n3)n2)c(Cl)c1` [Example 95, N-(3-chloro-4-{5-[8-chloro-6-(trifluoromethyl)imidazo[1,2-a]pyridin-2-yl]-1,2,4-oxadiazol-3-yl}phenyl)-beta-alanine] is 0.1 to 0.5 µM.

`O=C(O)CNc1ccc(-c2noc(-c3cn4cc(C(F)(F)F)cc(Cl)c4n3)n2)c(Cl)c1` [Example 103, N-(3-chloro-4-{5-[8-chloro-6-(trifluormethyl)imidazo[1,2-a]pyridin-2-yl]-1,2,4-oxadiazol-3-yl}phenyl)glycine]: the EC50 (read-out: Assay 1 EC50) lay within 0.1 to 0.5 µM. On the same count and under the same terms, the value for `Cc1cc(NS(C)(=O)=O)c(F)cc1-c1noc(-c2cn3cc(C(F)(F)F)cc(Cl)c3n2)n1` [Example 106, N-(4-{5-[8-chloro-6-(trifluoromethyl)imidazo[1,2-a]pyridin-2-yl]-1,2,4-oxadiazol-3-yl}-2-fluoro-5-methylphenyl)methane sulfonamide] was at most 0.1 µM; that for `Cc1cc(-c2noc(-c3cn4cc(C(F)(F)F)cc(Cl)c4n3)n2)cc(C)c1O[C@@H](C)CO` [Example 107, (2S)-2-[(4-{5-[8-chloro-6-(trifluoromethyl)imidazo[1,2-a]pyridin-2-yl]-1,2,4-oxadiazol-3-yl}-2,6-dimethylphenyl)oxy]propan-1-ol] was at most 0.1 µM. For the compound `CCN(CC)CCS(=O)(=O)Nc1ccc(-c2noc(-c3cn4cc(C(F)(F)F)cc(Cl)c4n3)n2)c(Cl)c1` [Example 108, N-(3-chloro-4-{5-[8-chloro-6-(trifluoromethyl)imidazo[1,2-a]pyridin-2-yl]-1,2,4-oxadiazol-3-yl}phenyl)-2-(diethylamino)ethanesulfonamide], the EC50 under setting [1] lay in the range of 1 to 5 µM. In the case of `CS(=O)(=O)Nc1ccc(-c2noc(-c3cn4cc(C(F)(F)F)cc(Cl)c4n3)n2)cc1F` [Example 109, N-(4-{5-[8-chloro-6-(trifluoromethyl)imidazo[1,2-a]pyridin-2-yl]-1,2,4-oxadiazol-3-yl}-2-fluorophenyl)methanesulfonamide], the EC50 (read-out: Assay 1 EC50) was 0.1 to 0.5 µM. With `CS(=O)(=O)Nc1cc(Cl)c(-c2noc(-c3cn4cc(C(F)(F)F)cc(Cl)c4n3)n2)cc1F` [Example 111, N-(5-chloro-4-{5-[8-chloro-6-(trifluoromethyl)imidazo[1,2-a]pyridin-2-yl]-1,2,4-oxadiazol-3-yl}-2-fluorophenyl)methanesulfonamide], where the note is “read-out: Assay 1 EC50”, the EC50 is at most 0.1 µM. Still for that read-out and setting: the figure for `O=C(O)CN1CCC(Oc2ccc(-c3noc(-c4cn5cc(C(F)(F)F)cc(Cl)c5n4)n3)c(Cl)c2)C1` (stereo not shown) [Example 112] is at most 0.1 µM. As for `CCOC(=O)C(C)Oc1cc(Cl)c(-c2noc(-c3cn4cc(C(F)(F)F)cc(Cl)c4n3)n2)cc1F` (stereo not shown) [Example 113, ethyl 2-[(5-chloro-4-{5-[8-chloro-6-(trifluoromethyl)imidazo[1,2-a]pyridin-2-yl]-1,2,4-oxadiazol-3-yl}-2-fluorophenyl)oxy]propanoate], under “read-out: Assay 1 EC50”, the EC50 was at most 0.1 µM. Turning to `CS(=O)(=O)Nc1ccc(-c2noc(-c3cn4cc(C#N)cc(Br)c4n3)n2)c(Cl)c1` [Example 114, N-{4-[5-(8-bromo-6-cyanoimidazo[1,2-a]pyridin-2-yl)-1,2,4-oxadiazol-3-yl]-3-chlorophenyl}methanesulfonamide], the EC50 under setting [1] was in the range of 1 to 5 µM. Turning to `CS(=O)(=O)Nc1ccc(-c2noc(-c3cn4cc(C(F)(F)F)cc(Cl)c4n3)n2)cc1` [Example 117, N-(4-{5-[8-chloro-6-(trifluoromethyl)imidazo[1,2-a]pyridin-2-yl]-1,2,4-oxadiazol-3-yl}phenyl)methanesulfonamide], for the setting “read-out: Assay 1 EC50”, the EC50 was at most 0.1 µM. The same measure, in the same setting: the figure for `Cc1cc(-c2noc(-c3cn4cc(C(F)(F)F)cc(Cl)c4n3)n2)ccc1NS(C)(=O)=O` [Example 119, N-(4-{5-[8-chloro-6-(trifluoromethyl)imidazo[1,2-a]pyridin-2-yl]-1,2,4-oxadiazol-3-yl}-2-methylphenyl)methanesulfonamide] is at most 0.1 µM. Still for that read-out and setting: the figure for `O=C(O)CNCc1ccc(-c2noc(-c3cn4cc(C(F)(F)F)cc(Cl)c4n3)n2)c(Cl)c1` [Example 120, N-[(3-chloro-4-{5-[8-chloro-6-(trifluoromethyl)imidazo[1,2-a]pyridin-2-yl]-1,2,4-oxadiazol-3-yl}phenyl)methyl]glycine] is 0.5 to 1 µM; for `O=C(O)C1CN(Cc2cccc(-c3noc(-c4cn5cc(C(F)(F)F)cc(Cl)c5n4)n3)c2)C1` [Example 121, 1-[(3-{5-[8-chloro-6-(trifluoromethyl)imidazo[1,2-a]pyridin-2-yl]-1,2,4-oxadiazol-3-yl}phenyl)methyl]azetidine-3-carboxylic acid] it is 0.5 to 1 µM; for `CS(=O)(=O)Nc1ccc(-c2noc(-c3cn4cc(C(F)(F)F)cc(Cl)c4n3)n2)cc1Cl` [Example 122, N-(2-chloro-4-{5-[8-chloro-6-(trifluoromethyl)imidazo[1,2-a]pyridin-2-yl]-1,2,4-oxadiazol-3-yl}phenyl)methanesulfonamide] it is at most 0.1 µM. On the same count and under the same terms, the value for `O=C(O)CCNCc1ccc(-c2noc(-c3cn4cc(C(F)(F)F)cc(Cl)c4n3)n2)cc1` [Example 123, N-[(4-{5-[8-chloro-6-(trifluoromethyl)imidazo[1,2-a]pyridin-2-yl]-1,2,4-oxadiazol-3-yl}phenyl)methyl]-beta-alanine] was 0.1 to 0.5 µM. For `Cc1cc(Br)c2nc(-c3nc(-c4ccc(NS(C)(=O)=O)cc4Cl)no3)cn2c1` [Example 125, N-{4-[5-(8-bromo-6-methylimidazo[1,2-a]pyridin-2-yl)-1,2,4-oxadiazol-3-yl]-3-chlorophenyl}methanesulfonamide], under setting [1], the EC50 lay in the range of 1 to 5 µM. Take `CC(C)(O)c1ccc(-c2noc(-c3cn4cc(C(F)(F)F)cc(Cl)c4n3)n2)c(Cl)c1` [Example 126, 2-(3-chloro-4-{5-[8-chloro-6-(trifluoromethyl)imidazo[1,2-a]pyridin-2-yl]-1,2,4-oxadiazol-3-yl}phenyl)propan-2-ol]: the EC50 (read-out: Assay 1 EC50) fell in the range of 0.1 to 0.5 µM. For the compound `O=C(O)C1CN(Cc2ccc(-c3noc(-c4cn5cc(C(F)(F)F)cc(Cl)c5n4)n3)cc2Cl)C1` [Example 127, 1-[(2-chloro-4-{5-[8-chloro-6-(trifluoromethyl)imidazo[1,2-a]pyridin-2-yl]-1,2,4-oxadiazol-3-yl}phenyl)methyl]azetidine-3-carboxylic acid], the EC50 (read-out: Assay 1 EC50) is 0.1 to 0.5 µM.
